Test results reported in patent publication US20230192878A1, “METHODS, THERAPIES AND USES FOR TREATING CANCER” (PFIZER INC., priority 2020, published 2023).

How the values were obtained:
CD8+ T cells = assay: PD-1 induction on CD8+ T cells co-cultured with MM.1S-luc cells; format: cell-based, human; conditions: 1 nM BCMAxCD3 bispecific, ± SD
Procedure: CD3+ T cells from PBMCs (Stem Cell Technologies) were negatively selected using EasySep Human T cell enrichment kit (Stem Cell Technologies). 10,000 target Multiple Myeloma MM.1S cells expressing luciferase (MM.1S-luc) were seeded with 50,000 CD3^+ pan T cells in a clear 96-well V-bottom plate. Cells were treated with 1 nM BCMAxCD3 bispecific antibody and PD-1 expression was analyzed at 3, 24, 48 and 72 hours after addition of the BCMAxCD3 bispecific. At the specified time points, cells were collected from the wells, washed with PBS+2% FBS, and stained with ZombieNIR Viability dye (Biolegend) in PBS for 20 minutes at room temperature, followed by staining with antibodies against human CD8 and PD-1 (Biolegend). Samples were analyzed using FlowJo flow cytometry analysis software. Dead cells were removed from analysis by gating on ZombieNIR negative population. Samples were further gated on CD8^+ positive population. Percentage of PD-1+ cells is expressed as PD-1 positive cells within the CD8+ population.

MM.1S-PD-L1 = assay: Subcutaneous MM.1S-PD-L1 multiple myeloma mouse model; format: in vivo; conditions: alone or +anti-PD-1 5 mg/kg, dosing from Day 21
Procedure: MM.1S multiple myeloma cells were engineered to express PD-L1 and are referred to as MM.1S-PD-L1. Pre-activated and expanded T cells (20×10^6) were administered on Day 19 after MM.1S-PDL1 tumor cell inoculation subcutaneously (SC). BCMAxCD3 bispecific (0.3 or 1 mg/kg) or negative bispecific (1 mg/kg) was administered IV on Day 21 and dosed Q7Dx3. Anti-PD-1 mAb was administered at 5 mg/kg intraperitoneally (IP) twice a week starting on Day 21. Tumor measurements were recorded 2 to 3 times a week using digital calipers. N (at study start) is 5-12 animals per group.

MM.1S = assay: Cell surface BCMA expression after GSI, concentration series; format: cell-based; conditions: 24 hours
Procedure: (§1) Multiple myeloma cells (MM.1S, OPM2, H929, Molp8, RPMI8226) were seeded in a 96-well U bottom plate at 40,000 cells/well. Cells were incubated for 24 hours in the presence of GSI diluted in RPMI (0.1% DMSO). The following concentrations of the GSI were tested: 1000 nM, 500 nM, 100 nM, 50 nM, 25 nM, 10 nM, 5 nM, 2.5 nM, 1 nM, 0.1 nM, 0.01 nM. 24 hours later cells were collected and washed with PBS+2% FBS, followed by staining with ZombieNIR Viability Dye (Biolegend) at 1 in 500 dilution in PBS at room temperature for 20 minutes. Next, cells were washed with PBS+2% FBS and stained with anti-BCMA PE-labelled antibody (Biolegend) diluted in PBS+2% FBS for 30 minutes at 4° C. Cells were acquired on BD Flow Cytometer and analyzed using FlowJo flow cytometry analysis software. Dead cells were removed from analysis by gating on ZombieNIR negative population. BCMA mean fluorescence intensity (MFI) was plotted against GSI concentration to establish EC50.

Molp8 = assay: as above; format: cell-based; conditions: 24 hours
Procedure: as §1

OPM2 = assay: as above; format: cell-based; conditions: 24 hours
Procedure: as §1

RPMI8226 = assay: as above; format: cell-based; conditions: 24 hours
Procedure: as §1

H929 = assay: as above; format: cell-based; conditions: 24 hours
Procedure: as §1

Compound: PF-06863135: heterodimeric humanized full-length bispecific antibody with one BCMA binding arm and one CD3 binding arm
- % PD-1 (of CD8+ T cells) (CD8+ T cells; 3 hours): 12.8 ± 0.6%
- % PD-1 (of CD8+ T cells) (CD8+ T cells; 24 hours): 18.9 ± 1.2%
- % PD-1 (of CD8+ T cells) (CD8+ T cells; 48 hours): 69.9 ± 3.1%
- % PD-1 (of CD8+ T cells) (CD8+ T cells; 72 hours): 69.9 ± 3.1%
- Tumor Volume ± SEM (MM.1S-PD-L1; day 14 post tumor cell inoculation, BCMA × CD3 bispecific 0.3 mg/kg): 34.4 ± 9.5 mm^3
- Tumor Volume ± SEM (MM.1S-PD-L1; day 14 post tumor cell inoculation, BCMA × CD3 bispecific 1 mg/kg): 26.4 ± 7.5 mm^3
- Tumor Volume ± SEM (MM.1S-PD-L1; day 18 post tumor cell inoculation, BCMA × CD3 bispecific 0.3 mg/kg): 91.6 ± 18 mm^3
- Tumor Volume ± SEM (MM.1S-PD-L1; day 18 post tumor cell inoculation, BCMA × CD3 bispecific 1 mg/kg): 92 ± 17.1 mm^3
- Tumor Volume ± SEM (MM.1S-PD-L1; day 20 post tumor cell inoculation, BCMA × CD3 bispecific 0.3 mg/kg): 122.5 ± 20.7 mm^3
- Tumor Volume ± SEM (MM.1S-PD-L1; day 20 post tumor cell inoculation, BCMA × CD3 bispecific 1 mg/kg): 130.7 ± 24.6 mm^3
- Tumor Volume ± SEM (MM.1S-PD-L1; day 25 post tumor cell inoculation, BCMA × CD3 bispecific 0.3 mg/kg): 403 ± 59 mm^3
- Tumor Volume ± SEM (MM.1S-PD-L1; day 25 post tumor cell inoculation, BCMA × CD3 bispecific 1 mg/kg): 601.1 ± 70^ mm^3
- Tumor Volume ± SEM (MM.1S-PD-L1; day 28 post tumor cell inoculation, BCMA × CD3 bispecific 0.3 mg/kg): 403.3 ± 67.6 mm^3
- Tumor Volume ± SEM (MM.1S-PD-L1; day 28 post tumor cell inoculation, BCMA × CD3 bispecific 1 mg/kg): 482.9 ± 32.6 mm^3
- Tumor Volume ± SEM (MM.1S-PD-L1; day 32 post tumor cell inoculation, BCMA × CD3 bispecific 0.3 mg/kg): 603.6 ± 151.6 mm^3
- Tumor Volume ± SEM (MM.1S-PD-L1; day 32 post tumor cell inoculation, BCMA × CD3 bispecific 1 mg/kg): 410.5 ± 82.7 mm^3
- Tumor Volume ± SEM (MM.1S-PD-L1; day 35 post tumor cell inoculation, BCMA × CD3 bispecific 0.3 mg/kg): 835.1 ± 77.2 mm^3
- Tumor Volume ± SEM (MM.1S-PD-L1; day 35 post tumor cell inoculation, BCMA × CD3 bispecific 1 mg/kg): 627.9 ± 111.8 mm^3
- Tumor Volume ± SEM (MM.1S-PD-L1; day 39 post tumor cell inoculation, BCMA × CD3 bispecific 0.3 mg/kg): 1569.3 ± 151.8 mm^3
- Tumor Volume ± SEM (MM.1S-PD-L1; day 39 post tumor cell inoculation, BCMA × CD3 bispecific 1 mg/kg): 1436.8 ± 276.4 mm^3

Compound: CCC[C@H](N[C@H]1CCc2cc(F)cc(F)c2C1)C(=O)Nc1cn(C(C)(C)CNCC(C)(C)C)cn1 [GSI, nirogacestat]
- BCMA (-PE) MFI (MM.1S; GSI 0.01 nM): 15589.5
- BCMA (-PE) MFI (MM.1S; GSI 0.1 nM): 15775.5
- BCMA (-PE) MFI (MM.1S; GSI 1 nM): 14396
- BCMA (-PE) MFI (MM.1S; GSI 2.5 nM): 21412.5
- BCMA (-PE) MFI (MM.1S; GSI 5 nM): 28832
- BCMA (-PE) MFI (MM.1S; GSI 10 nM): 31248
- BCMA (-PE) MFI (MM.1S; GSI 25 nM): 37026.5
- BCMA (-PE) MFI (MM.1S; GSI 50 nM): 38111
- BCMA (-PE) MFI (MM.1S; GSI 100 nM): 37582.5
- BCMA (-PE) MFI (MM.1S; GSI 500 nM): 35780
- BCMA (-PE) MFI (MM.1S; GSI 1000 nM): 35780
- BCMA (-PE) MFI (Molp8; Molp8, GSI 0.01 nM): 1191.5
- BCMA (-PE) MFI (Molp8; Molp8, GSI 0.1 nM): 1242.5
- BCMA (-PE) MFI (Molp8; Molp8, GSI 1 nM): 1288.5
- BCMA (-PE) MFI (Molp8; Molp8, GSI 2.5 nM): 1401
- BCMA (-PE) MFI (Molp8; Molp8, GSI 5 nM): 1761.5
- BCMA (-PE) MFI (Molp8; Molp8, GSI 10 nM): 2183.5
- BCMA (-PE) MFI (Molp8; Molp8, GSI 25 nM): 3691
- BCMA (-PE) MFI (Molp8; Molp8, GSI 50 nM): 5120
- BCMA (-PE) MFI (Molp8; Molp8, GSI 100 nM): 5412
- BCMA (-PE) MFI (Molp8; Molp8, GSI 500 nM): 5640.5
- BCMA (-PE) MFI (Molp8; Molp8, GSI 1000 nM): 6401
- BCMA (-PE) MFI (OPM2; OPM2, GSI 0.01 nM): 2093.5
- BCMA (-PE) MFI (OPM2; OPM2, GSI 0.1 nM): 2079.5
- BCMA (-PE) MFI (OPM2; OPM2, GSI 1 nM): 2185
- BCMA (-PE) MFI (OPM2; OPM2, GSI 2.5 nM): 2358.5
- BCMA (-PE) MFI (OPM2; OPM2, GSI 5 nM): 2788.5
- BCMA (-PE) MFI (OPM2; OPM2, GSI 10 nM): 3190.5
- BCMA (-PE) MFI (OPM2; OPM2, GSI 25 nM): 6575.5
- BCMA (-PE) MFI (OPM2; OPM2, GSI 50 nM): 10863
- BCMA (-PE) MFI (OPM2; OPM2, GSI 100 nM): 14364
- BCMA (-PE) MFI (OPM2; OPM2, GSI 500 nM): 15910.5
- BCMA (-PE) MFI (OPM2; OPM2, GSI 1000 nM): 14747.5
- BCMA (-PE) MFI (RPMI8226; RPMI8226, GSI 0.01 nM): 10028
- BCMA (-PE) MFI (RPMI8226; RPMI8226, GSI 0.1 nM): 10099
- BCMA (-PE) MFI (RPMI8226; RPMI8226, GSI 1 nM): 10483.5
- BCMA (-PE) MFI (RPMI8226; RPMI8226, GSI 2.5 nM): 10226.5
- BCMA (-PE) MFI (RPMI8226; RPMI8226, GSI 5 nM): 10589.5
- BCMA (-PE) MFI (RPMI8226; RPMI8226, GSI 10 nM): 11181.5
- BCMA (-PE) MFI (RPMI8226; RPMI8226, GSI 25 nM): 12617
- BCMA (-PE) MFI (RPMI8226; RPMI8226, GSI 50 nM): 13190.5
- BCMA (-PE) MFI (RPMI8226; RPMI8226, GSI 100 nM): 13416
- BCMA (-PE) MFI (RPMI8226; RPMI8226, GSI 500 nM): 13464.5
- BCMA (-PE) MFI (RPMI8226; RPMI8226, GSI 1000 nM): 14362
- BCMA (-PE) MFI (H929; H929, GSI 0.01 nM): 4824.5
- BCMA (-PE) MFI (H929; H929, GSI 0.1 nM): 5305.5
- BCMA (-PE) MFI (H929; H929, GSI 1 nM): 8615.5
- BCMA (-PE) MFI (H929; H929, GSI 2.5 nM): 10344.5
- BCMA (-PE) MFI (H929; H929, GSI 5 nM): 13226
- BCMA (-PE) MFI (H929; H929, GSI 10 nM): 15670
- BCMA (-PE) MFI (H929; H929, GSI 25 nM): 18445.5
- BCMA (-PE) MFI (H929; H929, GSI 50 nM): 17424.5
- BCMA (-PE) MFI (H929; H929, GSI 100 nM): 19455.5
- BCMA (-PE) MFI (H929; H929, GSI 500 nM): 20285.5
- BCMA (-PE) MFI (H929; H929, GSI 1000 nM): 21156
